From US20140079836A1, “METHODS AND COMPOSITIONS FOR ALTERING HEALTH, WELLBEING, AND LIFESPAN” (LifeSpan Extension, LLC, priority 2008, published 2014)

Tests used:
[1] = system: genes involved in longevity (Array 1); assay: Custom RT-PCR microarray (Array 1) gene expression in skin fibroblasts, UVB/UVA1; assay type: cell-based, human; conditions: donor three IDE + UVB vs. Green tea + UVB Continuous Incubation; for PPC gene expression fold change / RTC gene expression fold change: control well
Experimental: Seeding of cells: On Day 1, each cell culture was seeded into 6 well cluster dishes at ˜1.5×10^5 cells in 4 mls medium per well. Three wells were seeded per test condition or control.
Experimental phase: On Day 3, wells were washed 1× with 2 mls medium, fed back 2 mls medium without fetal bovine serum and preincubated for 30-60 minutes before challenge with test or control conditions. After the preincubation, medium was aspirated from the wells and 2.5 mls of test or control condition in medium with 1% fetal bovine serum was pipetted into the appropriate wells.
(3) UVA1, UVB exposed and unexposed cells without test condition were used as controls. The experimental phase ended at 24 hours post UV exposure. Cells from each test and control parameter were then prepped for RNA isolation as described below.
UVB/UVA1 exposure: Cells exposed to UV received 200 mJ/cm^2 UVB/1 MED UVA1 using Thermo Oriel solar simulator model SP66923-3056. Cells were exposed from the bottom of the culture dish. The UV dose delivered to the cells was adjusted for interference from the plastic in the culture dish.
Preparation of RNA: The RNA was isolated using the Qiagen RNEasy Plus Mini Kit according to the manufacturer's protocol which can be found on the World Wilde Web at qiagen.com/literature/Defaultaspx?Term=&Language=EN&LiteratureType=4& ProductCategory=10162. The RNA was quantified and examined for purity using the 260/280 nm read method in a μ Quant spectrophotometer before use in the array.
Creation and Performance of a Custom Microarray (“Array 1”): Through the Custom Array design service of Superarray Bioscience Corporation, a 96 well RT-PCR microarray (“Array 1”) was developed to illustrate genetic responses in cells treated as above for specific genes involved in longevity as well as the relevant quality controls. The array was performed in compliance with manufacturer's guidelines and by recommended manufacturer's protocol as can be found on the World Wilde Web at superarray.com/Manual/perarrayplate.pdf
(§1) Custom Microarray Results: The results from the microarrays were determined using the delta CT method which uses comparisons of control genes and threshold cycles of genes of interest to generate relative expression values. The full set of experimental conditions was cross referenced and the data is provided herewith in DATA TABLE 3.
Preparation of RNA: The RNA was isolated using the Qiagen RNEasy Plus Mini Kit according to the manufacturer's protocol which can be found on the World Wide Web at qiagen.com/literature/Default. aspx?Term=&Language=EN&LiteratureType=4&ProductCategory=10162.
The RNA was quantified and examined for purity using the 260/280 nm read method in a μ Quant spectrophotometer before use in the array.
Creation and Performance of the Custom Microarray: Through the Custom Array design service of Superarray Bioscience Corporation, a 96 well RT-PCR Microarray was developed to illustrate genetic responses in cells treated as above for specific genes involved in longevity as well as the relevant quality controls. The array was performed in compliance with manufacturer's guidelines and by recommended manufacturer's protocol as can be found on the World Wide Web at superarray.com/Manual/perarrayplate.pdf.
as §1, with “4.” for “3.”
as §1, with “5. […]” for “3.”

[2] = system: custom array genes; assay: Chlorogenic acid challenge, custom RT-PCR microarray, dermal fibroblasts ag07999; assay type: cell-based, human; conditions: 24 hours
Experimental: Human dermal fibroblasts (ag07999) were seeded at near confluency in 6-well dishes in 4 ml MEM, 10% FBS/well. 24 hours after seeding, wells were aspirated and 3 ml chlorogenic acid dilution in MEM, 1% FBS added, or MEM, 1% FBS only for control wells. Chlorogenic acid (Acros Organics, Geel, Belgium) dilutions used were: 0.005%, 0.0005%, 0.00005%, 0.000005% and 0.0000005%. 24 hours after chlorogenic acid challenge, wells were aspirated, 1 ml trypsin-EDTA added to each well, swirled and aspirated. Trypsin-EDTA was again added to each well and cells retrieved with MEM 10% FBS when released from the substratum and centrifuged to a pellet.
RNA was collected from the harvested cells according to protocol using RT2 qPCR-Grade RNA Isolation Kit from SABiosciences Co. The RNA was then used to create cDNA (using a First Strand Synthesis Kit, SABiosciences, and following the manufacturer's instructions) and run on the BioRad iCycler RT-PCR machine using Custom RT-PCR Microarray (CAPH09464A, SABiosciences) (Array 1) and SYBR Green Reaction Mix (SABiosciences). Data from Example 16 are shown in FIG. 19; additional results are described and analyzed below.

COC1=C(OC)C(=O)C(CCCCCCCCCCO)=C(C)C1=O [IDE]
ACE gene expression fold change [1]: −1.13 | ACTB gene expression fold change [1]: −2.17 | APOE gene expression fold change [1]: 2.43 | BAX gene expression fold change [1]: −1.01 | BCL2 gene expression fold change [1]: 2.04 | CASP2 gene expression fold change [1]: −1.96 | CASP9 gene expression fold change [1]: 2.11 | CCL4L1 gene expression fold change [1]: 16.91 | CLK1 gene expression fold change [1]: 1.02 | COX1 gene expression fold change [1]: 1.17 | CREBBP gene expression fold change [1]: 1.49 | CYP19A1 gene expression fold change [1]: 24.76 | DDC gene expression fold change [1]: 58.89 | GAPDH gene expression fold change [1]: −2.10 | GH1 gene expression fold change [1]: 17.51 | HIGX1A gene expression fold change [1]: 40.22 | HLA-DRA gene expression fold change [1]: 65.34 | HPRT1 gene expression fold change [1]: 1.30 | HSPA1A gene expression fold change [1]: −1.54 | HSPA1B gene expression fold change [1]: −2.03 | HSPA1L gene expression fold change [1]: −1.39 | IFI44 gene expression fold change [1]: 1.09 | IGF1 gene expression fold change [1]: 4.23 | IGF2 gene expression fold change [1]: −1.16 | IL1A gene expression fold change [1]: 10.41 | IL6 gene expression fold change [1]: −1.25 | IL10 gene expression fold change [1]: 3.20 | KRAS gene expression fold change [1]: 1.21 | MAPK14 gene expression fold change [1]: −1.39 | NADSYN1 gene expression fold change [1]: −2.33 | NFKB1 gene expression fold change [1]: −1.13 | NOS2A gene expression fold change [1]: 40.22 | PARP1 gene expression fold change [1]: −2.68 | PARP2 gene expression fold change [1]: 22.32 | PPARG gene expression fold change [1]: 5.39 | PTGS2 gene expression fold change [1]: 3.68 | SHC1 gene expression fold change [1]: −1.54 | SIRT1 gene expression fold change [1]: 1.39 | SOD1 gene expression fold change [1]: −2.03 | SOD2 gene expression fold change [1]: −1.13 | TEP1 gene expression fold change [1]: 1.06 | TERT gene expression fold change [1]: 3.56 | TNF gene expression fold change [1]: 16.91 | TP53 gene expression fold change [1]: 1.39 | PPC gene expression fold change ([1]; entry r305): −1.48 | RTC gene expression fold change ([1]; entry r306): 1.09 | PPC gene expression fold change ([1]; entry r311): −1.77 | RTC gene expression fold change ([1]; entry r312): −3.29

O=C(/C=C/c1ccc(O)c(O)c1)O[C@@H]1C[C@](O)(C(=O)O)C[C@@H](O)[C@H]1O [chlorogenic acid, -[[3-(3,4-Dihydroxyphenyl)-1-oxo-2-propenyl]oxy]-1,4,5-trihydroxycyclohexanecarboxylic acid]
IFI44 relative expression ([2]; FIG. 17): may significantly decrease expression | expression of genes in the mitochondrial function/biogenesis pathway ([2]; FIG. 21a): primarily decreases gene expression | PTGS2 relative expression ([2]; at higher concentrations, FIG. 16): significant decrease in PTGS2 gene expression | NOS2A relative expression ([2]; increasing concentrations, FIG. 13): biphasic response | SIRT1 relative expression ([2]; increasing concentrations, FIG. 14): entirely decreasing expression | CCL4L1 relative expression ([2]; middle dosage (0.00005%), FIG. 11): marked repression
